Assays:
[1] = target: SARS-CoV-2 PLpro (Severe acute respiratory syndrome coronavirus 2, UniProt P0DTD1); test: Papain-like protease; assay type: biochemical; conditions: read-out: Percent inhibition against PLpro, 100 µg/mL, mean ± SEM of 3 replicas
[2] = test system: normal human fibroblast cells (HDF); test: Cell viability MTT assay; assay type: cell-based; conditions: in words
[3] = target: SARS-CoV-2 M^pro (Severe acute respiratory syndrome coronavirus 2, UniProt P0DTD1); assay type: biochemical; conditions: read-out: IC50 against M^pro; dose-response 25-200 µg/mL
[4] = test system: SARS-CoV-2; conditions: in words; cited from earlier work

## CCOC(=O)C(Cc1c[nH]c2ccccc12)NC(=O)CCC(=O)Nc1ccc(S(N)(=O)=O)cc1 (stereo not drawn) [Compound 2]
[1]
  inhibition at 100 µg/mL: ≤ 40%

## COc1ccc(/C=C\C(=O)NC(=S)Nc2ccc(S(=O)(=O)NC(N)=O)cc2)cc1OC [Compound 9]
[1]
  inhibition at 100 µg/mL: ≤ 40%

## N=C(N/N=C/c1ccccc1O)c1nonc1NCNc1nonc1C(=N)N/N=C/c1ccccc1O [Compound 13]
[2]
  toxicity on mammalian cells: no toxicity

## COc1cc(C(NC2=NC(=O)C(CC(=O)Nc3ccc(C(=O)O)cc3)S2)c2c(O)[nH]c(=O)[nH]c2=O)ccc1O (stereo not drawn) [Compound 7]
[3]
  IC50: 450 nM
[2]
  toxicity on mammalian cells: no toxicity

## Cc1cccc(C)c1OCC(=O)N[C@@H](Cc1ccccc1)[C@@H](O)C[C@H](Cc1ccccc1)NC(=O)[C@H](C(C)C)N1CCCNC1=O [lopinavir]
[4]
  outcome in clinical trial as anti-SARS-CoV-2 inhibitors: failed in the clinical trial

## O=C(CSc1nnc2c(n1)[nH]c1ccccc12)Nc1cccc(S(=O)(=O)N2CCOCC2)c1 [Compound 8]
[1]
  inhibition at 100 µg/mL: ≤ 40%

## COc1cc(CC(C)NCc2cc(NC(=O)c3ccccn3)cc(C(=O)N(C)C)c2)ccc1O (stereo not drawn) [Compound 12]
[1]
  inhibition at 100 µg/mL: ≤ 40%

## CC(C)c1nc(CN(C)C(=O)N[C@H](C(=O)N[C@@H](Cc2ccccc2)C[C@H](O)[C@H](Cc2ccccc2)NC(=O)OCc2cncs2)C(C)C)cs1 [ritonavir]
[4]
  outcome in clinical trial as anti-SARS-CoV-2 inhibitors: failed in the clinical trial

Source: publication PMC8107043 (Bioorganic & Medicinal Chemistry Letters, 2021)
